{"source": "PubChem BioAssay (NCI)", "assay_in_all_cases": "NCI-60 cell line screen, 48 h", "key": {"SK-MEL-5 melanoma": {"test_system": "SK-MEL-5 melanoma"}, "SN12C renal": {"test_system": "SN12C renal"}, "OVCAR-3 ovarian": {"test_system": "OVCAR-3 ovarian"}, "LOX IMVI melanoma": {"test_system": "LOX IMVI melanoma"}, "CCRF-CEM leukemia": {"test_system": "CCRF-CEM leukemia"}, "IGROV1 ovarian": {"test_system": "IGROV1 ovarian"}, "NCI-H522 lung": {"test_system": "NCI-H522 lung"}, "DU-145 prostate": {"test_system": "DU-145 prostate"}, "T-47D breast": {"test_system": "T-47D breast"}, "COLO 205 colon": {"test_system": "COLO 205 colon"}}, "note": "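Each compound was tested at five concentrations against cells in 96-well plates for 48 hours. GI50 marks 50% less growth. TGI: total growth inhibition.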"}
{"smiles": "CCOC(=O)C(O)(NC(=O)c1ccccc1F)C(F)(F)F", "note": "(stereo not given)", "values": [{"measurement": "TGI", "setting": "SK-MEL-5 melanoma", "value": "> 100", "unit": "µM"}, {"measurement": "TGI", "setting": "SN12C renal", "value": "> 100", "unit": "µM"}, {"measurement": "TGI", "setting": "OVCAR-3 ovarian", "value": "> 100", "unit": "µM"}, {"measurement": "TGI", "setting": "LOX IMVI melanoma", "value": "> 100", "unit": "µM"}, {"measurement": "TGI", "setting": "CCRF-CEM leukemia", "value": "> 100", "unit": "µM"}, {"measurement": "TGI", "setting": "IGROV1 ovarian", "value": "> 100", "unit": "µM"}, {"measurement": "TGI", "setting": "NCI-H522 lung", "value": "> 100", "unit": "µM"}, {"measurement": "TGI", "setting": "DU-145 prostate", "value": "> 100", "unit": "µM"}, {"measurement": "TGI", "setting": "T-47D breast", "value": "> 100", "unit": "µM"}, {"measurement": "TGI", "setting": "COLO 205 colon", "value": "> 100", "unit": "µM"}]}
{"smiles": "CO/N=C(\\C)COc1ccc2c(=O)c(-c3ccccc3)coc2c1", "values": [{"measurement": "GI50", "setting": "SK-MEL-5 melanoma", "value": "> 100", "unit": "µM"}, {"measurement": "TGI", "setting": "SK-MEL-5 melanoma", "value": "> 100", "unit": "µM"}, {"measurement": "GI50", "setting": "SN12C renal", "value": 30.1, "unit": "µM"}, {"measurement": "TGI", "setting": "SN12C renal", "value": 68.9, "unit": "µM"}, {"measurement": "GI50", "setting": "OVCAR-3 ovarian", "value": 30.2, "unit": "µM"}, {"measurement": "TGI", "setting": "OVCAR-3 ovarian", "value": 74.2, "unit": "µM"}, {"measurement": "GI50", "setting": "LOX IMVI melanoma", "value": 42.5, "unit": "µM"}, {"measurement": "TGI", "setting": "LOX IMVI melanoma", "value": "> 100", "unit": "µM"}, {"measurement": "GI50", "setting": "CCRF-CEM leukemia", "value": "> 100", "unit": "µM"}, {"measurement": "TGI", "setting": "CCRF-CEM leukemia", "value": "> 100", "unit": "µM"}, {"measurement": "GI50", "setting": "IGROV1 ovarian", "value": 24.7, "unit": "µM"}, {"measurement": "TGI", "setting": "IGROV1 ovarian", "value": 77.9, "unit": "µM"}, {"measurement": "GI50", "setting": "NCI-H522 lung", "value": 22.2, "unit": "µM"}, {"measurement": "TGI", "setting": "NCI-H522 lung", "value": 79, "unit": "µM"}, {"measurement": "GI50", "setting": "DU-145 prostate", "value": 23.1, "unit": "µM"}, {"measurement": "TGI", "setting": "DU-145 prostate", "value": 52.7, "unit": "µM"}, {"measurement": "GI50", "setting": "T-47D breast", "value": 17.3, "unit": "µM"}, {"measurement": "TGI", "setting": "T-47D breast", "value": 48.6, "unit": "µM"}, {"measurement": "GI50", "setting": "COLO 205 colon", "value": 11.2, "unit": "µM"}, {"measurement": "TGI", "setting": "COLO 205 colon", "value": 32.4, "unit": "µM"}]}
{"smiles": "COc1cc(C2C(C(=O)O)=C(COC(C)=O)Oc3cc4c(cc32)OCO4)cc(OC)c1OC", "note": "(stereo not given)", "values": [{"measurement": "TGI", "setting": "SK-MEL-5 melanoma", "value": "> 100", "unit": "µM"}, {"measurement": "TGI", "setting": "SN12C renal", "value": "> 100", "unit": "µM"}, {"measurement": "TGI", "setting": "OVCAR-3 ovarian", "value": "> 100", "unit": "µM"}, {"measurement": "TGI", "setting": "LOX IMVI melanoma", "value": "> 100", "unit": "µM"}, {"measurement": "TGI", "setting": "CCRF-CEM leukemia", "value": "> 100", "unit": "µM"}, {"measurement": "TGI", "setting": "IGROV1 ovarian", "value": "> 100", "unit": "µM"}, {"measurement": "TGI", "setting": "COLO 205 colon", "value": "> 100", "unit": "µM"}]}
{"smiles": "CN(C)c1ccc(C(Cc2ccc3ccccc3n2)Cc2ccc3ccccc3n2)cc1", "values": [{"measurement": "GI50", "setting": "IGROV1 ovarian", "value": 2.57, "unit": "µM"}, {"measurement": "TGI", "setting": "IGROV1 ovarian", "value": "> 100", "unit": "µM"}, {"measurement": "GI50", "setting": "NCI-H522 lung", "value": 3.4, "unit": "µM"}, {"measurement": "TGI", "setting": "NCI-H522 lung", "value": "> 100", "unit": "µM"}, {"measurement": "GI50", "setting": "DU-145 prostate", "value": "> 100", "unit": "µM"}, {"measurement": "TGI", "setting": "DU-145 prostate", "value": "> 100", "unit": "µM"}, {"measurement": "GI50", "setting": "T-47D breast", "value": 1.71, "unit": "µM"}, {"measurement": "TGI", "setting": "T-47D breast", "value": "> 100", "unit": "µM"}]}
